From patent publication US10759799B2, “Indazole containing macrocycles and therapeutic uses thereof” (Samumed, LLC, priority 2018, dated 2020)
Like-named read-outs stand apart in the source and are kept apart here.

Assays:
[1] = DMF
recombinant GSK3β kinase = recombinant GSK3β kinase (Homo sapiens (Human), UniProt P49841); experiment: GSK3β kinase assay (Ser/Thr 09 peptide Z-lyte, FRET); type: biochemical; conditions: 46 μM ATP, one hour at room temperature, read-out: EC50 (μM) (IC50 per method)
Excerpt: Representative compounds were screened using the assay procedure for GSK3β kinase activity as described below.
The GSK3β kinase assay is run using the Ser/Thr 09 peptide Z-lyte assay kit according to manufacturer's instructions (Life Technologies—a Division of Thermo-Fisher). This is a non-radioactive assay using fluorescence resonance energy transfer (FRET) between coumarin and fluorescein to detect kinase activity which is represented as ratio of coumarin emission/fluorescein emission.
Briefly, recombinant GSK3β kinase, ATP and Ser/Thr peptide 09 are prepared in 1× Kinase buffer to final concentrations of 0.04 μg/mL, 46 μM, and 4 μM respectively. The mixture is allowed to incubate with the representative compounds for one hour at room temperature. All reactions were performed in duplicate. Unphosphorylated (“0% Control”) and phosphorylated (“100% control”) forms of […] serve as control reactions.
(§1) After incubation, diluted Development Buffer is added to the reaction and allowed to further incubate for one hour at room temperature. The plate is read at Ex 400 Em 455 to detect the coumarin signal and Ex 400 Em 520 to measure the signal (EnVision Multilabel Plate Reader, PerkinElmer).
The Emission ratio (Em) is calculated as a ratio of the coumarin (C) emission signal (at 445 nm)/Fluorescein (F) emission signal (at 520 nm). The percent phosphorylation is then calculated using the following formula: [1−((Em ratio×F100%)−C100%)/((C0%−C100%)+(Em ratio×(F100%−F0%)))].
Dose-response curves are generated and inhibitory concentration (IC50) values are calculated using non-linear regression curve fit in the Dotmatics' Studies Software (Bishops Stortford, UK).

[2] = test system: primary human mesenchymal stem cells (hMSCs); experiment: Chondrogenesis induction in hMSCs (Rhodamine B staining intensity, EC50); type: cell-based; conditions: 6 days, Rhodamine B staining intensity of nodules
Excerpt: Representative compounds were screened using primary human mesenchymal stem cells (hMSCs) to determine their ability to induce chondrogenesis (process by which cartilage is developed).
Primary human mesenchymal stem cells (hMSCs) were purchased from Lonza (Walkersville, Md.) and expanded in Mesenchymal Stem Cell Growth Media (Lonza). Cells between passage 2 and 4 were used for the experiments.
To image chondrogenic nodules, the cells were fixed using 4% formaldehyde (Electron Microscopy Sciences), and stained with 2 μg/mL Rhodamine B (Sigma-Aldrich) and 20 μM Nile Red (Sigma-Aldrich) [Johnson K., et. al, A Stem Cell-Based Approach to Cartilage Repair, Science, (2012), 336(6082). […] Rhodamine B staining intensity of nodules in each well was normalized to the average of 3 DMSO treated wells on the same plate using Excel (Microsoft Inc.). The normalized averages (fold change over DMSO) of 3 replicate wells for each compound concentration were calculated. EC50 values were calculated using non-linear regression curve fitting in Prism 8 (Graphpad Inc.). Due to solubility limitations of some of the compounds, curve fitting was incomplete, and the highest observed activity was extrapolated to the insoluble doses for accurate EC50 determinations.
EC50 values are reported. Further, using TGF-β3 as a positive control, the concentration of representative compounds required to induce equivalent levels of chondrogenesis is reported. In addition, the maximum activity of each compound and the respective dose that each compound reached maximum chondrogenesis activity is reported.

[3] = molecular target: recombinant DYRK1A kinase (Homo sapiens (Human), UniProt Q13627); experiment: DYRK1A kinase assay (Ser/Thr 18 peptide Z-lyte, FRET); type: biochemical; conditions: 30 μM ATP, one hour at room temperature, read-out: EC50 (μM) (IC50 per method)
Excerpt: Representative compounds were screened using the assay procedure for DYRK1A kinase activity as described below.
The DYRK1A kinase assay was run using the Ser/Thr 18 peptide Z-lyte assay kit according to manufacturer's instructions (Life Technologies—a Division of Thermo-Fisher). This is a non-radioactive assay using fluorescence resonance energy transfer (FRET) between coumarin and fluorescein to detect kinase activity which is represented as a ratio of coumarin emission/fluorescein emission.
Briefly, recombinant DYRK1A kinase, ATP and Ser/Thr peptide 18 were prepared in 1× Kinase buffer to final concentrations of 0.19 μg/mL, 30 μM, and 4 μM respectively. The mixture was allowed to incubate with the representative compounds for one hour at room temperature. All reactions were performed in duplicate. Unphosphorylated (“0% Control”) and phosphorylated (“100% control”) forms of Ser/Thr 18 served as control reactions. Additionally, an 11-point dose-response curve of Staurosporine (1 uM top) was run to serve as a positive compound control.
as §1, with “incubation, Development Reagent A was” for “incubation,”, “diluted in” for “diluted”, “Buffer then” for “Buffer is”, “plate was” for “plate is”
The Emission ratio (Em) was calculated as a ratio of the coumarin (C) emission signal (at 445 nm)/Fluorescein (F) emission signal (at 520 nm). The percent phosphorylation was then calculated using the following formula: [1−((Em ratio×F100%)−C100%)/((C0%−C100%)+(Em ratio×(F100%−F0%)))].

[4] = test system: SW480 colon carcinoma cells; experiment: Cell viability assay (CellTiter-Glo) in SW480 cells; type: cell-based; conditions: Homo sapiens; for EC50: 96 h, SW480 cell viability, four days, CellTiter-Glo
Experimental: Representative compounds were screened using the assay procedure to assess the effect on cell viability as described below.
SW480 colon carcinoma cells were transduced with a lentiviral vector expressing luciferase with a human Sp5 promoter consisting of a sequence of eight TCF/LEF binding sites. SW480 cells stably expressing the Sp5-Luc reporter gene and a hygromycin resistance gene were selected by treatment with 150 μg/mL of hygromycin for 7 days. These stably transduced SW480 cells were expanded in cell culture and used for all further screening activities.
For the Cell Viability Assays, the cells were plated at 2,000 cells/well in 384-well plates with a DMEM medium containing 1% fetal bovine serum, and 1% Penicillin-Streptomycin and incubated for […] at 37° C. and 5% CO2. Eight replicates of DMSO-treated cells served as controls and cells treated with compound were performed in duplicate.
After incubation, 10 μL of CellTiter-Glo (Promega) was added to each well allowed to incubate for approximately 12 minutes. This reagent “results in cell lysis and generation of a luminescent signal proportional to the amount of ATP present. The amount of ATP is directly proportional to the number of cells present in culture, in agreement with previous reports. The CellTiter-Glo Assay generates a “glow-type” luminescent signal, produced by the luciferase reaction (Promega.com)”.

[5] = test system: Wnt activity (Sp5-Luc reporter, SW480 colon carcinoma cells); experiment: Sp5-Luc reporter gene screening assay for Wnt activity in SW480 cells; type: cell-based; conditions: Homo sapiens; Sp5-Luc reporter, SW480 cells, 36 to 48 hours
Excerpt: The screening assay for Wnt activity is described as follows. Reporter cell lines can be generated by stably transducing cancer cell lines (e.g., colon cancer) or primary cells (e.g., IEC-6 intestinal cells) with a lentiviral construct that includes a Wnt-responsive promoter driving expression of the firefly luciferase gene.
SW480 colon carcinoma cells were transduced with a lentiviral vector expressing luciferase with a human Sp5 promoter consisting of a sequence of eight TCF/LEF binding sites. SW480 cells stably expressing the Sp5-Luc reporter gene and a hygromycin resistance gene were selected by treatment with 150 μg/mL of hygromycin for 7 days. These stably transduced SW480 cells were expanded in cell culture and used for all further screening activities. […] For Sp5-Luc reporter gene assays, the cells were plated at 4,000 cells/well in 384-well plates with a DMEM medium containing 1% fetal bovine serum, and 1% Penicillin-Streptomycin and incubated for 36 to 48 hours at 37° C. and 5% CO2. Following incubation, 15 μl of BriteLite Plus luminescence reagent (Perkin Elmer) was added to each well of the 384-well assay plates. The plates were placed on an orbital shaker for 2 min and then luminescence was quantified using the Envision (Perkin Elmer) plate reader. Readings were normalized to DMSO only treated cells, and normalized activities were utilized for EC50 calculations using the dose-response log (inhibitor) vs. response-variable slope (four parameters) nonlinear regression feature available in GraphPad Prism 5.0 (or Dotmatics).

[6] = test system: primary human fibroblasts derived from IPF patients (LL29 cells); experiment: Inhibition of TGF-β1 induced fibrosis (αSMA staining) in LL29 fibroblasts; type: cell-based; conditions: Fibroblast, 96 h, LL29 cells, TGF-β1 20 ng/mL, 4 days, % αSMA positive cells
Experimental: Representative compounds were screened using primary human fibroblasts (derived from IPF patients) treated with TGF-β1 to determine their ability to inhibit the fibrotic process.
LL29 cells were plated at 1,500 cells/well in 70 μL/well F12 medium supplemented with 1% Fetal Bovine Serum. […] Wells treated with TGF-β1 and containing DMSO were used as positive control, and cells with only DMSO were negative control. […] Following incubation for 4 days, SYTOX green nucleic acid stain (Life Technologies [Thermo Fisher Scientific]) was added to the wells at a final concentration of 1 μM and incubated at room temperature for 30 min.

recombinant GSK3β kinase, sequence (P49841 whole entry): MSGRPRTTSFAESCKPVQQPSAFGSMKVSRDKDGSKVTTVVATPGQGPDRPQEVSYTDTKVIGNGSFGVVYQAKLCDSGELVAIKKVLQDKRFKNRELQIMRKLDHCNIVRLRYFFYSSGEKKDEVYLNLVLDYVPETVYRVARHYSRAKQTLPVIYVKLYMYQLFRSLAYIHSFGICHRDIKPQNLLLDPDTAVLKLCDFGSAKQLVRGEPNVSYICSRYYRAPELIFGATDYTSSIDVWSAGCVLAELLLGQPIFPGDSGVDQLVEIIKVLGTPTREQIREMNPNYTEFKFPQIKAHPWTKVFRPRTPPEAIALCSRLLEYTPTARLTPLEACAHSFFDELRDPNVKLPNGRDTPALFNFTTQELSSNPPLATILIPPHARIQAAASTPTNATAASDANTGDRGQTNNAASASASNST

Work on c1ccc(C(c2ccccc2)(c2ccccc2)n2nc3c4cc(ccc42)-c2cncc(c2)OCCCc2cccc(c2)-c2cccc4[nH]c-3nc24)cc1 yielded a ring closure, isolated yield ([1]; from Oc1cncc(-c2ccc3c(c2)c(-c2nc4c(-c5cccc(CCCBr)c5)cccc4[nH]2)nn3C(c2ccccc2)(c2ccccc2)c2ccccc2)c1, ether bond, 18-membered ring, K2CO3, 20.0 mM, 80.0 °C) of 50.8%.

In the case of O=C1CCc2cccc(c2)-c2cccc3[nH]c(nc23)-c2nn(C(c3ccccc3)(c3ccccc3)c3ccccc3)c3ccc(cc23)-c2cncc(c2)N1, the ring closure, isolated yield ([1]; from Nc1cncc(-c2ccc3c(c2)c(-c2nc4c(-c5cccc(CCC(=O)O)c5)cccc4[nH]2)nn3C(c2ccccc2)(c2ccccc2)c2ccccc2)c1, amide bond, 18-membered ring, HATU/DIEA/DMAP, 17.5 mM, 70.0 °C) is reported as 49.2%.

Compound O=C1CCc2cccc(c2)-c2ccnc3[nH]c(nc23)-c2n[nH]c3ccc(cc23)-c2cncc(c2)N1 [Compound 4, (Z)-2^3H,3^1H-5-aza-2(7,2)-imidazo[4,5-b]pyridina-3 (3,5)-indazola-4(3,5)-pyridina-1(1,3)-benzenacyclooctaphan-6-one] has an IC50 (recombinant GSK3β kinase) of 0.494 µM, an EC50 [2] of 69 nM and an IC50 [3] of 0.204 µM. It also gave an EC50 [4] greater than 10000 nM, an inhibition at 10 µM ([4]; SW480, read-out: percent inhibition at 10 μM) of 49.5% and an EC50 [5] of 7660 nM.

O=C1CCCc2cccc(c2)-c2cccc3[nH]c(nc23)-c2n[nH]c3ccc(cc23)-c2cncc(c2)N1 [Compound 71] showed an IC50 (recombinant GSK3β kinase) of 0.014 µM, an EC50 [2] of 3120 nM and an IC50 [3] of 0.014 µM. The EC50 [4] was 35 nM, the EC50 [6] was 21 nM and the EC50 [5] was 17 nM.

Work on “(Z)-5,10-Dimethyl-1^1H,2^1H-5,10-diaza-1(2,4)-imidazo[4,5-c]pyridina-2(3,5)-indazola-3(3,5)-pyridinacyclodecaphane” yielded a ring closure, isolated yield ([1]; amine bond, 18-membered ring, KI/DIEA, 42.4 mM, 90.0 °C) of 9.7%.

For c1cc2cc(c1)-c1cccc3[nH]c(nc13)-c1n[nH]c3ccc(cc13)-c1cncc(n1)NCCO2 [Compound 109], the IC50 (recombinant GSK3β kinase) was 0.062 µM, the EC50 [2] was 9 nM and the ring closure, isolated yield ([1]; from NCCOc1cccc(-c2cccc3[nH]c(-c4n[nH]c5ccc(-c6cncc(Cl)n6)cc45)nc23)c1, snar bond, 18-membered ring, DIEA, 19.0 mM, 110.0 °C) was 26.4%. It also gave an IC50 [3] of 0.096 µM, an EC50 [4] of 54 nM and an EC50 [5] of 34 nM.

CN1CCCn2cc(nn2)-c2nccc3[nH]c(nc23)-c2n[nH]c3ccc(cc23)-c2cncc(c2)C1 showed a ring closure, isolated yield ([1]; from CNCc1cncc(-c2ccc3[nH]nc(-c4nc5c(-c6cn(CCCCl)nn6)nccc5[nH]4)c3c2)c1, amine bond, 19-membered ring, DIEA, 16.7 mM, 100.0 °C) of 71.9%.
